In PMC3677030 (ChemMedChem, 2012):
Like-named read-outs stand apart in the source and are kept apart here.

Assays:
[1] = molecular target: T1, EphA2-ephrin-A1 interaction (EphA2-Fc ectodomain) (Mus musculus, UniProt Q03145); conditions: read-out: Ki, competitive antagonist of the EphA2 receptor; earlier work; cited from earlier work
EGF receptor [2] = molecular target: T2, EGF receptor (Homo sapiens, UniProt P00533); conditions: cited from earlier work
insulin receptor = conditions: cited from earlier work
VEGF receptor = conditions: cited from earlier work
[3] = test system: insulin-like growth factor receptor 1; conditions: cited from earlier work
[4] = molecular target: T1, EphA2-ephrin-A1 interaction (EphA2-Fc ectodomain); type: binding; conditions: for Activity in EphA2-ephrin-A1 binding assay, in words: tested starting from 200 μM; for Schild plot slope: slope between 0.8 and 1.2 indicates competitive binding
EphB4 receptor = molecular target: T3, EphB4 receptor (Homo sapiens, UniProt P54760); assay: EphB4 phosphorylation induced by ephrin-B2-Fc in T47D cells; type: cell-based; conditions: no ephrin, data not shown
T3 sequence (P54760 16-987): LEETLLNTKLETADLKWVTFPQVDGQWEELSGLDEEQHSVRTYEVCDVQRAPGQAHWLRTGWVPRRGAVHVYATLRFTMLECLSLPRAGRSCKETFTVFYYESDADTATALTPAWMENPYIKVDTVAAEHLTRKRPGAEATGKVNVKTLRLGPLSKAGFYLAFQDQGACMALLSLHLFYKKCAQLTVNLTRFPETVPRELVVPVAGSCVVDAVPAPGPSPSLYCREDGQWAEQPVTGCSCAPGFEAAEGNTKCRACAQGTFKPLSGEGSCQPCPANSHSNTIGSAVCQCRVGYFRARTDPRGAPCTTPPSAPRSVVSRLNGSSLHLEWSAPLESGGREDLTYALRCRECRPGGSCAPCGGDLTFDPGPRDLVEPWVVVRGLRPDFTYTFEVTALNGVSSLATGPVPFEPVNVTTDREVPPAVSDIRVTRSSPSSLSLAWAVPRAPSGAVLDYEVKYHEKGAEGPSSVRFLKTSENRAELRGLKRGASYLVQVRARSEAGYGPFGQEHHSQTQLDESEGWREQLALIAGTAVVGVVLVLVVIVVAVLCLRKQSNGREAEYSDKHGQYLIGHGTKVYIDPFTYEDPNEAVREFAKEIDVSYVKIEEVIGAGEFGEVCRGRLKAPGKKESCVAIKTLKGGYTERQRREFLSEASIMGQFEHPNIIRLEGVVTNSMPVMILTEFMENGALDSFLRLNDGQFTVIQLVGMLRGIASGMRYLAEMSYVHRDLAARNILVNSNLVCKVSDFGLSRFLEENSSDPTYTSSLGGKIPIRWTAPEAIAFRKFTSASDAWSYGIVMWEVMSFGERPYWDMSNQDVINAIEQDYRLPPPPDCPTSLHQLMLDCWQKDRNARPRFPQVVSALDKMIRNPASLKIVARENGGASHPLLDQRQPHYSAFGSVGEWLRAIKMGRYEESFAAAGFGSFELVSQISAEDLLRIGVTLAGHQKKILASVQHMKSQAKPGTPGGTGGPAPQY

[5] = test system: EphA receptors (vs EphB receptors); type: binding; conditions: compared with lithocholic acid
[6] = molecular target: T4, recombinant human EphA2 kinase domain (Homo sapiens, UniProt P29317); assay: EphA2 kinase assay; type: biochemical; conditions: 100 μM, 30 minutes
T4 sequence (P29317 613-875 limits assumed): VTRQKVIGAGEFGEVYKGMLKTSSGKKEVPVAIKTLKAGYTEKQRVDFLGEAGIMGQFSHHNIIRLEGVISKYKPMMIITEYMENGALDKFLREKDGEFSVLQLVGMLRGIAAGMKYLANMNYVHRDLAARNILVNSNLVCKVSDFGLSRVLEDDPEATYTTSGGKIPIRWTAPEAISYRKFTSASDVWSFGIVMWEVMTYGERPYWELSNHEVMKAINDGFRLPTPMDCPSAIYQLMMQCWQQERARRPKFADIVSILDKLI

EphA2 receptor [7] = molecular target: EphA2 receptor (Homo sapiens, UniProt P29317); assay: EphA2 phosphorylation induced by ephrin-A1-Fc in PC3 cells; type: cell-based; conditions: no ephrin, data not shown
EphA2 receptor (Homo sapiens, UniProt P29317), sequence (P29317 24-976): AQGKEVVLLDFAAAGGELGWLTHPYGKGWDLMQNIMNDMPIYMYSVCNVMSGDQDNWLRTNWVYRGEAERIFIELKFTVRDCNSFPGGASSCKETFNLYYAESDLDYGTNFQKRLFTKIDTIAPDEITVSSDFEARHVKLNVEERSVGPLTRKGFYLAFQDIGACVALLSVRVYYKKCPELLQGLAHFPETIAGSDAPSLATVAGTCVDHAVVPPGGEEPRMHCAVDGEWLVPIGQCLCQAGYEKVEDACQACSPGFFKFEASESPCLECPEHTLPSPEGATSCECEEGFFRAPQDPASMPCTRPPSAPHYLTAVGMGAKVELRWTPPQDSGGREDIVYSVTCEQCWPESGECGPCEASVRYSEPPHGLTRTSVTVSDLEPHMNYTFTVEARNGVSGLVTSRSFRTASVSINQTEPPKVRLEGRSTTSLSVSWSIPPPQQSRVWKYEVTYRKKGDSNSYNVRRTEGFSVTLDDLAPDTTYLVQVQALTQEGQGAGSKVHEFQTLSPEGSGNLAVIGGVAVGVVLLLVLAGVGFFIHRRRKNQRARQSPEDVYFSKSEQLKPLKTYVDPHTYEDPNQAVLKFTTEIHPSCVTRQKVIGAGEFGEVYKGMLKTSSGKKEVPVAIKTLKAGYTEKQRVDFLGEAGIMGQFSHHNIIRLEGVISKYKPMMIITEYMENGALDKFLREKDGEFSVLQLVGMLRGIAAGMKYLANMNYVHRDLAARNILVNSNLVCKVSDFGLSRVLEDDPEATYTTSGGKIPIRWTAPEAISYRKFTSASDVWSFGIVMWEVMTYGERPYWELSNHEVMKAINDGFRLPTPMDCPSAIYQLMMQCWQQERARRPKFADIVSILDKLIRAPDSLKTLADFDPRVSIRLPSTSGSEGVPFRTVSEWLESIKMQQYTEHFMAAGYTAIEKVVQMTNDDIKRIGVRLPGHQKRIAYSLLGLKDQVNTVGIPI

EphA2 receptor [8] = molecular target: EphA2 receptor (Mus musculus, UniProt Q03145); assay: Surface plasmon resonance; type: binding; conditions: for Kd: SPR
EphA2 receptor (Mus musculus, UniProt Q03145), sequence (Q03145 26-538 limits assumed): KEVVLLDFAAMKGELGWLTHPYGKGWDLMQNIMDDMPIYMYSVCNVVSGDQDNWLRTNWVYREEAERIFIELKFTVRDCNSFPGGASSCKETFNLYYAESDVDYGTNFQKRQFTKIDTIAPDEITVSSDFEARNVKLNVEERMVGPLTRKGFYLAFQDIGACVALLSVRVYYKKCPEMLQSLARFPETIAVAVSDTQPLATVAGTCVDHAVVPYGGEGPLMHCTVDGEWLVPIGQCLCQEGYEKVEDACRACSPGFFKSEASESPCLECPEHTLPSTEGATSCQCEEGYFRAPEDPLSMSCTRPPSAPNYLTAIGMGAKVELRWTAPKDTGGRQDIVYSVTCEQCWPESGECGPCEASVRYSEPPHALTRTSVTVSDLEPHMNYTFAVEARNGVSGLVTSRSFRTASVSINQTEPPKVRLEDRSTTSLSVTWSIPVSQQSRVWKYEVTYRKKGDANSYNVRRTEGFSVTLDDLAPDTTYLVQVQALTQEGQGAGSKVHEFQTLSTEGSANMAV

EGF receptor [9] = molecular target: T2, EGF receptor; assay: EGF receptor phosphorylation induced by EGF in PC3 cells; type: cell-based; conditions: up to 100 μM, 30 ng/ml EGF

T1 sequence (Q03145 26-538 limits assumed): as above
T2 sequence (P00533 25-1210): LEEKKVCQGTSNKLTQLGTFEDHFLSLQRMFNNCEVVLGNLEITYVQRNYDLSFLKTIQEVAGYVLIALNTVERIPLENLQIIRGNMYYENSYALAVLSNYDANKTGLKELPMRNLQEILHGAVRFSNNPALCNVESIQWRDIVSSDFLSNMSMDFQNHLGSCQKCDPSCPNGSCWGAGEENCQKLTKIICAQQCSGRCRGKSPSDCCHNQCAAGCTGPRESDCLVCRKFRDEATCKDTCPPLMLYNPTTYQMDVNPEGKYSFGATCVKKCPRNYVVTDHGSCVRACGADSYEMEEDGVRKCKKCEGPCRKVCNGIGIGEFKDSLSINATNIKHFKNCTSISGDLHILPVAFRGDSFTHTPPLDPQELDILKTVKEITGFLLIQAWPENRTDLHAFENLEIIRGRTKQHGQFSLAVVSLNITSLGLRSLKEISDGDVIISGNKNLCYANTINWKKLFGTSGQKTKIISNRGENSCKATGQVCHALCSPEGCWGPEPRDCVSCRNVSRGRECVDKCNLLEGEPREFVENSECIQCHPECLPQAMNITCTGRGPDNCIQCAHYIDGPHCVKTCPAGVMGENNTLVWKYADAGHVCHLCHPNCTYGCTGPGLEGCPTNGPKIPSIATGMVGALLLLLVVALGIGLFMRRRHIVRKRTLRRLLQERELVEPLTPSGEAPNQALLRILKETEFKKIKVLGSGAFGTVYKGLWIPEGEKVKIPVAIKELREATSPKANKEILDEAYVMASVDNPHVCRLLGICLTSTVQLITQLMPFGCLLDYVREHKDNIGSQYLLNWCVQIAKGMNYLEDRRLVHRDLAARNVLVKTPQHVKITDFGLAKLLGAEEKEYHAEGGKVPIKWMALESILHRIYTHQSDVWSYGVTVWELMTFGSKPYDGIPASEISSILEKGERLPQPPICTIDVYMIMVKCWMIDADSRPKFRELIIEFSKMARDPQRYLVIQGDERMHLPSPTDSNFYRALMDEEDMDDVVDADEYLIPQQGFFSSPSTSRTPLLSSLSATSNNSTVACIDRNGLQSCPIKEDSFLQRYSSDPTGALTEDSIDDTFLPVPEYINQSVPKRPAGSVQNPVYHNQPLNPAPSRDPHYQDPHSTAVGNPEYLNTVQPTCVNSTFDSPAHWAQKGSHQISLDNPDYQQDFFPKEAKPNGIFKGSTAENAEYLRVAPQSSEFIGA

Structure (SMILES)	Ki [4] [µM]	Activity in EphA2-ephrin-A1 binding assay, in words [4]	other results
C[C@H](CCC(=O)O)[C@H]1CC[C@H]2[C@@H]3CC[C@@H]4C[C@H](O)CC[C@]4(C)[C@H]3CC[C@]12C [Compound 1, (3α,5β)-3-hydroxycholan-24-oic acid]	–	–	Ki [1]: 49 ± 3 µM; Effect on EGF receptor (EGF receptor [2]): lack of effects; Effect on insulin receptor (insulin receptor): lack of effects; Effect on VEGF receptor (VEGF receptor): lack of effects; Effect on insulin-like growth factor receptor 1 [3]: lack of effects
C[C@H](CCC(=O)O)[C@H]1CC[C@H]2[C@@H]3[C@H](O)C[C@@H]4C[C@H](O)CC[C@]4(C)[C@H]3C[C@H](O)[C@]12C [Compound 2, cholic acid]	> 200	inactive	–
C[C@H](CCC(=O)O)[C@H]1CC[C@H]2[C@@H]3CC[C@@H]4C[C@H](O)CC[C@]4(C)[C@H]3C[C@H](O)[C@]12C [Compound 3, deoxycholic acid]	> 200	inactive	–
C[C@H](CCC(=O)O)[C@H]1CC[C@H]2[C@@H]3[C@H](O)C[C@@H]4C[C@H](O)CC[C@]4(C)[C@H]3CC[C@]12C [Compound 4, chenodeoxycholic acid]	> 200	inactive	–
C[C@H](CCC(=O)O)[C@H]1CC[C@H]2[C@@H]3CC[C@@H]4C[C@@H](O)CC[C@]4(C)[C@H]3CC[C@]12C [Compound 10, (3β,5β)-3-hydroxycholan-24-oic acid]	–	–	IC50 [4]: 67 µM; Schild plot slope ([4]; listed as isolithocholic): 0.96 ± 007
C[C@H](CCC(=O)O)[C@H]1CC[C@H]2[C@@H]3CC[C@@H]4C[C@@H](S(=O)(=O)O)CC[C@]4(C)[C@H]3CC[C@]12C [Compound 11, (3β,5β)-3-sulfocholan-24-oic acid]	> 200	inactive	–
C[C@H](CCC(=O)O)[C@H]1CC[C@H]2[C@@H]3CC[C@@H]4CCCC[C@]4(C)[C@H]3CC[C@]12C [Compound 12, (5β)-cholan-24-oic acid]	5.1 ± 1.4	–	Stimulation of EphB4 tyrosine phosphorylation by compound on its own (EphB4 receptor): did not stimulate; Selectivity between Eph receptor subfamilies, in words [5]: more selective for the EphA receptor subfamily; Effect on EphA2 kinase activity [6]: did not affect; Stimulation of EphA2 tyrosine phosphorylation by compound on its own (EphA2 receptor [7]): did not stimulate; Schild plot slope ([4]; listed as cholanic acid): 0.98 ± 002; Kd (EphA2 receptor [8]; KD from steady state analysis, steady state affinity): 1.16 µM; Kd (EphA2 receptor [8]; affinity constant (KD) from kinetic analysis, koff/kon): 8.45 µM; kon (EphA2 receptor [8]; read-out: association rate (kon)): 44000 M⁻¹ s⁻¹; koff (EphA2 receptor [8]; read-out: dissociation rate (koff)): 0.369 s⁻¹; Effect on EGF receptor activation induced by EGF (EGF receptor [9]): did not interfere
COC(=O)CC[C@@H](C)[C@H]1CC[C@H]2[C@@H]3CC[C@@H]4C[C@H](O)CC[C@]4(C)[C@H]3CC[C@]12C [Compound 13, methyl (3α,5β)-3-hydroxycholan-24-oate]	> 200	inactive or weakly active	–
C[C@H](CCC(=O)NO)[C@H]1CC[C@H]2[C@@H]3CC[C@@H]4C[C@H](O)CC[C@]4(C)[C@H]3CC[C@]12C [Compound 14, (3α,5β)-3-Hydroxycholan-24-hydroxamic acid]	> 200	inactive or weakly active	–
C[C@H](CCC(=O)NN)[C@H]1CC[C@H]2[C@@H]3CC[C@@H]4C[C@H](O)CC[C@]4(C)[C@H]3CC[C@]12C [Compound 15, (3α,5β)-3-Hydroxycholan-24-hydrazide]	> 200	inactive or weakly active	–
C[C@H](CCCO)[C@H]1CC[C@H]2[C@@H]3CC[C@@H]4C[C@H](O)CC[C@]4(C)[C@H]3CC[C@]12C [Compound 16, (3α,5β)-Cholan-3,24-diol]	186 ± 27	inactive or weakly active	–
